ChEMBL document CHEMBL5678818, “Discovery of potent SOS1 inhibitors that block RAS activation via disruption of the RAS-SOS1 interaction” (Proc Natl Acad Sci U S A, 2019)

Legend:
[1] = biological target: T1, Serine/threonine-protein kinase haspin (Homo sapiens) (UniProt Q8TF76); experiment: Inhibition of HASPIN (unknown origin) assessed as residual activity at 100 nM by KINOMEscan analysis relative to control
T1 sequence (whole entry): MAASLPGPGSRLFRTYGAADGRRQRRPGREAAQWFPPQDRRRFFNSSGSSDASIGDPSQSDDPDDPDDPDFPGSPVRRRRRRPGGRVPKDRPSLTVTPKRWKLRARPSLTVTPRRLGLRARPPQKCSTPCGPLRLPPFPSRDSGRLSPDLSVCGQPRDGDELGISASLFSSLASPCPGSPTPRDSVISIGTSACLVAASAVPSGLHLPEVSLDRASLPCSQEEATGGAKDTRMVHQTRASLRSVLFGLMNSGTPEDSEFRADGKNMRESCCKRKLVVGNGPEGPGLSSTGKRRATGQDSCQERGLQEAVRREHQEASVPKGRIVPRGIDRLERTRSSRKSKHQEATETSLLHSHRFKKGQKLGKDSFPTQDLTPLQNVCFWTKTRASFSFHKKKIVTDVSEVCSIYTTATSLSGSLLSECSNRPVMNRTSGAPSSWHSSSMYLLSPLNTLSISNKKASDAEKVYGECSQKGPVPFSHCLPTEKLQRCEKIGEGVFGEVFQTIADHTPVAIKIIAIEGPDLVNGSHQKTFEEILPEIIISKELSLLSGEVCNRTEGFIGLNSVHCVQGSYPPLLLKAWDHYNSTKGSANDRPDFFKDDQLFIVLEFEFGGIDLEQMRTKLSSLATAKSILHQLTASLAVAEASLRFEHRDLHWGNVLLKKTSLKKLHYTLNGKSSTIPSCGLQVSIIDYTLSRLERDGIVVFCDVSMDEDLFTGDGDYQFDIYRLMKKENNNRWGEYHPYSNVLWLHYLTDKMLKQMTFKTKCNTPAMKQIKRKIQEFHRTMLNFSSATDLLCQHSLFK

[2] = biological target: T2, Serine/threonine-protein kinase Sgk2 (Homo sapiens) (UniProt Q9HBY8); experiment: Inhibition of SGK2 (unknown origin) assessed as residual activity at 100 nM by KINOMEscan analysis relative to control
T2 sequence (whole entry): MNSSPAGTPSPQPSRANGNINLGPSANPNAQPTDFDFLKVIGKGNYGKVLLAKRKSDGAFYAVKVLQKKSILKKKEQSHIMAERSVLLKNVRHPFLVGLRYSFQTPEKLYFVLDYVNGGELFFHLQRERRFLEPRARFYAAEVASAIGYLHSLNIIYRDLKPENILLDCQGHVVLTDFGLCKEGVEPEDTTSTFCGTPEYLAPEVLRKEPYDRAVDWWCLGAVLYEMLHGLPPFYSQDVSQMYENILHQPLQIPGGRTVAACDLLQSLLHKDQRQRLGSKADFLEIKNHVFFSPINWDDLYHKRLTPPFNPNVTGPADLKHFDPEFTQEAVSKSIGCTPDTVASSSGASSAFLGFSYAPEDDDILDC

[3] = biological target: T3, Dual specificity mitogen-activated protein kinase kinase 3 (Homo sapiens) (UniProt P46734); experiment: Inhibition of MEK3 (unknown origin) assessed as residual activity at 100 nM by KINOMEscan analysis relative to control
T3 sequence (whole entry): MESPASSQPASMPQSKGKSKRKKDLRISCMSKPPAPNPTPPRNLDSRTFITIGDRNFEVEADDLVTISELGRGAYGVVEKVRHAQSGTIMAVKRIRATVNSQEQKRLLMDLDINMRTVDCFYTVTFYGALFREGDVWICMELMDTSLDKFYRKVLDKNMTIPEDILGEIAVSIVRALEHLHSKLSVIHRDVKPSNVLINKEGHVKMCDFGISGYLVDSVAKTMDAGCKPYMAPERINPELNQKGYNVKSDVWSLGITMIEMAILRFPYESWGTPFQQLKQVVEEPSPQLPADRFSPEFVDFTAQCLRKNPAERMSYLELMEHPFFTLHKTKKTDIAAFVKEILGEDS

[4] = biological target: Protein-tyrosine kinase 6 (Homo sapiens) (UniProt Q13882); experiment: Inhibition of BRK (unknown origin) assessed as residual activity at 100 nM by KINOMEscan analysis relative to control
Protein-tyrosine kinase 6 (Homo sapiens), sequence (Q13882 whole entry, looked up): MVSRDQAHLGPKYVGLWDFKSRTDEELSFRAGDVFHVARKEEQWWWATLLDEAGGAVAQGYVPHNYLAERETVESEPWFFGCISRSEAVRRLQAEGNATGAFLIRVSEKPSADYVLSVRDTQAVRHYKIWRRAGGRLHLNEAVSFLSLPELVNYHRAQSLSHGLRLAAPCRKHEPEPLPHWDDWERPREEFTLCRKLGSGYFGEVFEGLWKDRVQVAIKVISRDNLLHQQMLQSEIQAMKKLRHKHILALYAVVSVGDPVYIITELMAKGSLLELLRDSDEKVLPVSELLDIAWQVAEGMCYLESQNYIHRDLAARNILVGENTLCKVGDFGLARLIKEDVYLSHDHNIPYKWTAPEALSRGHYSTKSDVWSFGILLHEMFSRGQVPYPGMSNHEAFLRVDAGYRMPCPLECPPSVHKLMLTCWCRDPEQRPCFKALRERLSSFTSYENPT

[5] = biological target: T4, TGF-beta receptor type-1 (Homo sapiens) (UniProt P36897); experiment: Inhibition of TGFBR1 (unknown origin) assessed as residual activity at 100 nM by KINOMEscan analysis relative to control
T4 sequence (whole entry): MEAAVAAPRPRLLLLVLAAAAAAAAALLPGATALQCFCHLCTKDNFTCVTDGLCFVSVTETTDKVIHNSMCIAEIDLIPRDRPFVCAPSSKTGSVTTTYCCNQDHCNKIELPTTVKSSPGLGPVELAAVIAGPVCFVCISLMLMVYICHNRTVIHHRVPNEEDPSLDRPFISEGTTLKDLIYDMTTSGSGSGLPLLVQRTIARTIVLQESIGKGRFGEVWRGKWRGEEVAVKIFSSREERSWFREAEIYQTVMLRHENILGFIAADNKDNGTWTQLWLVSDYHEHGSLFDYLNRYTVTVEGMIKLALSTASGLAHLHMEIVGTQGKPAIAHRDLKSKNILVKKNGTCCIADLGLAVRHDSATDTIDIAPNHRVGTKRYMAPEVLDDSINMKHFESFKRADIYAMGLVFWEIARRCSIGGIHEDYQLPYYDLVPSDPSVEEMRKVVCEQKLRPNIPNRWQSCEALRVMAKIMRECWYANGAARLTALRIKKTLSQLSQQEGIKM

[6] = test system: Leucine-rich repeat serine/threonine-protein kinase 2 (Homo sapiens), Q5S007 [G2019S]; experiment: Inhibition of LRRK2 G2019S mutant (unknown origin) assessed as residual activity at 100 nM by KINOMEscan analysis relative to control
Leucine-rich repeat serine/threonine-protein kinase 2 (Homo sapiens), Q5S007 [G2019S], sequence (Q5S007 whole entry G2019S): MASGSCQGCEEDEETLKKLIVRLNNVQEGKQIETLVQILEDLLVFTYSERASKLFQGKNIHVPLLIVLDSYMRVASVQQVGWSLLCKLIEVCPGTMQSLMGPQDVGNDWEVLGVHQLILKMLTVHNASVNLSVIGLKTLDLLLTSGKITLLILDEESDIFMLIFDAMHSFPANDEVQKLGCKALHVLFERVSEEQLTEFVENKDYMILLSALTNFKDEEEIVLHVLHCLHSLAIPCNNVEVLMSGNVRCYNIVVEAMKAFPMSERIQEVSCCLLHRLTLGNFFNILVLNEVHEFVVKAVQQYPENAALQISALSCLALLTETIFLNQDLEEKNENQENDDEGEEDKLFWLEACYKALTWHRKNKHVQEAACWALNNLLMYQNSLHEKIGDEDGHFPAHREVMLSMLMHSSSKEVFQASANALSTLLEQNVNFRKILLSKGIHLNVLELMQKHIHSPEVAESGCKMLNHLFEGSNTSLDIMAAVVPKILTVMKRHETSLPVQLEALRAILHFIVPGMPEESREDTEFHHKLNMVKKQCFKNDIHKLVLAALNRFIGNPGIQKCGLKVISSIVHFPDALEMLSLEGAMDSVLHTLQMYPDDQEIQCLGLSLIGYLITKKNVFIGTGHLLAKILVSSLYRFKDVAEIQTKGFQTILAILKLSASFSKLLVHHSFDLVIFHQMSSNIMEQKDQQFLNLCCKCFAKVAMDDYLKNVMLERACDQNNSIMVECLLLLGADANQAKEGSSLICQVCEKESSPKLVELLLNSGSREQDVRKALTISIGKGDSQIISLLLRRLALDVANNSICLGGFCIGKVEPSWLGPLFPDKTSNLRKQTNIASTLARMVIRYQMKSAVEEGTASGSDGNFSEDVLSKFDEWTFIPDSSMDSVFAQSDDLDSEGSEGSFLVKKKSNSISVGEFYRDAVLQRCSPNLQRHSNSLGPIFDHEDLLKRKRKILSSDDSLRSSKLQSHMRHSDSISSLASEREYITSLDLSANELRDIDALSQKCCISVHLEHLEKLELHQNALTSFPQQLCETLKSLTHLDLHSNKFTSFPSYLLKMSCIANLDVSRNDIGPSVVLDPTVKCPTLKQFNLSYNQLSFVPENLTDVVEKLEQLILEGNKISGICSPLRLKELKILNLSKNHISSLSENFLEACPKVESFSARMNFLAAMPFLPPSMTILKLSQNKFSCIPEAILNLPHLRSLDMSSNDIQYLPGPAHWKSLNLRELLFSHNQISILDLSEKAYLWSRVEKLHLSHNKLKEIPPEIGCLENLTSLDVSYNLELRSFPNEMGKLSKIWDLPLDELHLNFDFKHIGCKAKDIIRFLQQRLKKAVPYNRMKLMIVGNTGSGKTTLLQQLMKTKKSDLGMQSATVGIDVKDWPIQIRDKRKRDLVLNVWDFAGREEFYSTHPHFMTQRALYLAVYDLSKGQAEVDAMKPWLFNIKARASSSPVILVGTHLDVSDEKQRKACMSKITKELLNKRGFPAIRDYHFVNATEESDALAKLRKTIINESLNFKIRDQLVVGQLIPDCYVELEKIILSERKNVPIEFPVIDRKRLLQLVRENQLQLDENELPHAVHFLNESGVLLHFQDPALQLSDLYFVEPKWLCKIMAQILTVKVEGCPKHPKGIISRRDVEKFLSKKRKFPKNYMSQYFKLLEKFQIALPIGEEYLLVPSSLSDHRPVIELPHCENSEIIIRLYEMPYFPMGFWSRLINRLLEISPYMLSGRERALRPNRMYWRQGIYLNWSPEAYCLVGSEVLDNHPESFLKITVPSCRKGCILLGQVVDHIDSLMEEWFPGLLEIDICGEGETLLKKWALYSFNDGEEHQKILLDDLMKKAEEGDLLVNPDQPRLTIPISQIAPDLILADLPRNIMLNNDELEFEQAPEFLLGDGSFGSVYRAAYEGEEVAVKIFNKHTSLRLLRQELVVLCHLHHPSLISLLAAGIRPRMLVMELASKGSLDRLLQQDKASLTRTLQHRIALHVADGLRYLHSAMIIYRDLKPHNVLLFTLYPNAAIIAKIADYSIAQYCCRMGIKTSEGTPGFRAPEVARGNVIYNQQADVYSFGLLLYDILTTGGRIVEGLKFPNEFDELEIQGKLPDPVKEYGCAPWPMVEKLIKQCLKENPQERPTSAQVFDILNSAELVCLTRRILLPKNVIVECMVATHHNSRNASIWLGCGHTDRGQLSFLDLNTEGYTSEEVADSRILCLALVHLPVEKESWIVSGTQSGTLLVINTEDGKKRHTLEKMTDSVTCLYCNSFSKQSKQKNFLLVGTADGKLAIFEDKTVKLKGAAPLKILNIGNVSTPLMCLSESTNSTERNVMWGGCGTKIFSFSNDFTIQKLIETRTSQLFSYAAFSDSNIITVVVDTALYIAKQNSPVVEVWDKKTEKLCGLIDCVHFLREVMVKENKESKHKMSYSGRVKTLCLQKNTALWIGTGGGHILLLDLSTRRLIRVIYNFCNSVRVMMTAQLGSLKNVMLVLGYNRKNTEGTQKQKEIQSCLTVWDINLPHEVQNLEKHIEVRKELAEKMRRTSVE

[7] = biological target: Tyrosine-protein kinase BTK (Homo sapiens) (UniProt Q06187); experiment: Inhibition of BTK (unknown origin) assessed as residual activity at 100 nM by KINOMEscan analysis relative to control
Tyrosine-protein kinase BTK (Homo sapiens), sequence (Q06187 whole entry): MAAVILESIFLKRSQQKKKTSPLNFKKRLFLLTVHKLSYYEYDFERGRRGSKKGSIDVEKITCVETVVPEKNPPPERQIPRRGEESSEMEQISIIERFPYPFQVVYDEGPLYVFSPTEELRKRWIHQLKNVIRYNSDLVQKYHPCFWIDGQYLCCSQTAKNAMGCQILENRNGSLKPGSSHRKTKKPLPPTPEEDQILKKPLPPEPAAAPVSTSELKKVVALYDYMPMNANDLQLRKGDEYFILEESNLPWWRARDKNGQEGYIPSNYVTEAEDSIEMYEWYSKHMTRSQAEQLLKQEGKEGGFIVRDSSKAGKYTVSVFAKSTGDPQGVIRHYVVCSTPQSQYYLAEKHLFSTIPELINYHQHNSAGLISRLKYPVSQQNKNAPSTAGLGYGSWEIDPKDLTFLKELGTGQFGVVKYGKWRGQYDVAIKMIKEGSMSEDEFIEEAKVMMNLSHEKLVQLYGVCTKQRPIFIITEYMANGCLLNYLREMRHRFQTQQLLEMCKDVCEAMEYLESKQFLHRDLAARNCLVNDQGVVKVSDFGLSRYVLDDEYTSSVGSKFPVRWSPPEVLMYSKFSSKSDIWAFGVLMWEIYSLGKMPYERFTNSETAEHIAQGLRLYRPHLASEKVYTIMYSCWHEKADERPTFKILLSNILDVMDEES

COc1cc2ncnc(N[C@H](C)c3cccc4ccccc34)c2cc1OC
Activity [1]: 95% | Activity [2]: 97% | Activity [3]: 90% | Activity [4]: 80% | Activity [5]: 83% | Activity [6]: 92% | Activity [7]: 95%
